Measured values taken from ChEMBL document CHEMBL1201862, “PubChem BioAssay data set” (2004).
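Following 48 hours of exposure in 96-well plates, responses at five concentrations were used to interpolate endpoints linearly. Abbreviation: GI50, concentration required for 50% inhibition of growth.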 Calls of active or inactive are those of the source. Rule as the data show it: active = GI50 up to about 1.1 µM and inactive = higher.

What was measured:
Experiment in all cases: DTP human tumour cell line panel, 48 h
M19-MEL = test system: M19-MEL
DLD-1 = test system: DLD-1
SNB-78 = test system: SNB-78
HOP-18 = test system: HOP-18
PC-3 = test system: PC-3
786-0 = test system: 786-0
RXF 631 = test system: RXF 631
LXFL 529 = test system: LXFL 529
BT-549 = test system: BT-549

| SMILES | GI50 (M19-MEL) | GI50 (DLD-1) | GI50 (SNB-78) | GI50 (HOP-18) | GI50 (PC-3) | other results |
| --- | --- | --- | --- | --- | --- | --- |
| Nc1c(S(=O)(=O)O)cc2cc(S(=O)(=O)O)ccc2c1/N=N/c1ccc(-c2ccc(/N=N/c3c(N)c(S(=O)(=O)O)cc4cc(S(=O)(=O)O)ccc34)c(S(=O)(=O)O)c2)cc1 | > 100 µM (inactive) | > 100 µM (inactive) | 97.7 µM (inactive) | > 100 µM (inactive) | – | – |
| COc1cccc2c1C(=O)c1c(O)c3c(c(O)c1C2=O)CC(O)(C(=O)CO)CC3OC1CC(N)C(I)C(C)O1 (stereo not given) | 2.7 µM (inactive) | 2.54 µM (inactive) | 25.7 µM (inactive) | 7.96 µM (inactive) | – | – |
| CC(C)N1CSC(=S)N(Cc2ccccc2)C1 | – | – | – | – | 3.75 µM (inactive) | – |
| N#C/C(=C\NC(=S)Nc1ccc(S(=O)(=O)Nc2ccccn2)cc1)C(N)=O | – | – | – | – | > 100 µM (inactive) | GI50 (786-0): > 100 µM (inactive) |
| CC(=O)NNc1nc(C)c(C(=O)NNC(=O)C(=O)Nc2ccc([N+](=O)[O-])cc2[N+](=O)[O-])s1 | – | > 100 µM (inactive) | > 100 µM (inactive) | – | – | GI50 (RXF 631): 68.9 µM (inactive); GI50 (LXFL 529): 93.1 µM (inactive) |
| CSc1nc(SC)c2cnn(CC3CO3)c2n1 (stereo not given) | 13.6 µM (inactive) | 22.3 µM (inactive) | – | 20.9 µM (inactive) | – | – |
| CC(=O)NC(c1nc2cc(C)c(C)cc2[nH]1)c1nc2cc(C)c(C)cc2[nH]1 | – | – | – | – | 24.8 µM (inactive) | GI50 (BT-549): 23.2 µM (inactive) |
| O=C(NN1C(=O)C(Cl)C1c1ccc([N+](=O)[O-])cc1)c1ccccc1O (stereo not given) | > 100 µM (inactive) | – | – | – | – | GI50 (LXFL 529): > 100 µM (inactive) |
| Nc1nc2cc(COc3ccc(C(=O)O)cc3)ccc2nc1-c1ccccc1 | – | – | – | – | > 10 µM (inactive) | – |
| CCOC(=O)C1=C(C)N(NC(N)=O)C2(O)CCCC(=O)C12C (stereo not given) | – | 94.4 µM (inactive) | > 100 µM (inactive) | > 100 µM (inactive) | – | GI50 (RXF 631): > 100 µM (inactive); GI50 (LXFL 529): > 100 µM (inactive) |
| CCOC(=O)C1=C(C)N(c2ccc(OC)cc2)C2(O)C=CC(O)=C3C(=O)c4ccccc4C(=O)C312 (stereo not given) | – | – | – | – | 5.53 µM (inactive) | GI50 (BT-549): 14 µM (inactive) |
| S=CN1CCCCC1 | – | – | – | – | > 100 µM (inactive) | GI50 (BT-549): > 100 µM (inactive); GI50 (786-0): > 100 µM (inactive) |
| CC1(c2sccc2Cl)CC(c2sccc2Cl)=C(C#N)C(=C(C#N)C#N)N1 (stereo not given) | – | – | – | – | 18.7 µM (inactive) | GI50 (BT-549): 17.8 µM (inactive); GI50 (786-0): 18.4 µM (inactive) |
| c1ccc(C(c2ccccc2)[P+](c2ccccc2)(c2ccccc2)c2ccccc2)cc1 | 0.397 µM (active) | 2.1 µM (inactive) | 0.612 µM (active) | 0.369 µM (active) | – | – |
